For the experiment, the target named is Integrin alpha-L/beta-2 (Homo sapiens, UniProt P05107+P20701). The experiment is described as follows: Inhibitory concentration against leukocyte function-associated antigen-1 in HSB-2 human lymphoblast and H1HeLa cell adhesion assay.
Sequence of Integrin alpha-L/beta-2 (P20701 whole entry): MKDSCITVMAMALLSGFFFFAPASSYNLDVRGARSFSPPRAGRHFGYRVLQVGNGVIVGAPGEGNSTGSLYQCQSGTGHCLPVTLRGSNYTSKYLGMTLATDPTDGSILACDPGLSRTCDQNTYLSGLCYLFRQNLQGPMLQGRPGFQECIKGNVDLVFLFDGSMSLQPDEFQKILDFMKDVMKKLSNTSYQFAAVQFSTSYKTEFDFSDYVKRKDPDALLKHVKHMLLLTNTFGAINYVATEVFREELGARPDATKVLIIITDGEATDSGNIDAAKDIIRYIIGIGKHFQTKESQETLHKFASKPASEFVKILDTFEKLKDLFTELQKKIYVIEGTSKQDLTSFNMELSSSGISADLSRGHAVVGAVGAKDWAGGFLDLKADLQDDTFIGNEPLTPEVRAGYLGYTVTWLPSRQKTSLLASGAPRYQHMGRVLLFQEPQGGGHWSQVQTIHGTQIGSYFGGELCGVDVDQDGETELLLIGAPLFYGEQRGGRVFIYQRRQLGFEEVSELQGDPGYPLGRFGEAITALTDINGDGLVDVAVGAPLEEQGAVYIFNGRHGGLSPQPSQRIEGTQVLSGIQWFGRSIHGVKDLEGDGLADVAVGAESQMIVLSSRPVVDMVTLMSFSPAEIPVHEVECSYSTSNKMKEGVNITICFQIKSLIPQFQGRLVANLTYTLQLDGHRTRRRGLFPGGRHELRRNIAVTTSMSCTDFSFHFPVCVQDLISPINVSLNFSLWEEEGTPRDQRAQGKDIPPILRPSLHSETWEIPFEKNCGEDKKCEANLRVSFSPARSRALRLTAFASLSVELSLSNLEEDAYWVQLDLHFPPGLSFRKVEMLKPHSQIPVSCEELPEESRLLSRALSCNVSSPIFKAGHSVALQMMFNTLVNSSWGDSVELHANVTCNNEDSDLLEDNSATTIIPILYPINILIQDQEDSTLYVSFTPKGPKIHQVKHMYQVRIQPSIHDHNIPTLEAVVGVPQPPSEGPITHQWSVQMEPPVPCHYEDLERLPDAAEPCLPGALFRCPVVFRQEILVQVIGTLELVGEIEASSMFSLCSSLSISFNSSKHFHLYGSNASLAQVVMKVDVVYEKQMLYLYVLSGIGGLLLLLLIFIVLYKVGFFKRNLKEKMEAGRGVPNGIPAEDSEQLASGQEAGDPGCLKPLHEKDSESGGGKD
Sequence of Integrin alpha-L/beta-2 (P05107 whole entry H354Q): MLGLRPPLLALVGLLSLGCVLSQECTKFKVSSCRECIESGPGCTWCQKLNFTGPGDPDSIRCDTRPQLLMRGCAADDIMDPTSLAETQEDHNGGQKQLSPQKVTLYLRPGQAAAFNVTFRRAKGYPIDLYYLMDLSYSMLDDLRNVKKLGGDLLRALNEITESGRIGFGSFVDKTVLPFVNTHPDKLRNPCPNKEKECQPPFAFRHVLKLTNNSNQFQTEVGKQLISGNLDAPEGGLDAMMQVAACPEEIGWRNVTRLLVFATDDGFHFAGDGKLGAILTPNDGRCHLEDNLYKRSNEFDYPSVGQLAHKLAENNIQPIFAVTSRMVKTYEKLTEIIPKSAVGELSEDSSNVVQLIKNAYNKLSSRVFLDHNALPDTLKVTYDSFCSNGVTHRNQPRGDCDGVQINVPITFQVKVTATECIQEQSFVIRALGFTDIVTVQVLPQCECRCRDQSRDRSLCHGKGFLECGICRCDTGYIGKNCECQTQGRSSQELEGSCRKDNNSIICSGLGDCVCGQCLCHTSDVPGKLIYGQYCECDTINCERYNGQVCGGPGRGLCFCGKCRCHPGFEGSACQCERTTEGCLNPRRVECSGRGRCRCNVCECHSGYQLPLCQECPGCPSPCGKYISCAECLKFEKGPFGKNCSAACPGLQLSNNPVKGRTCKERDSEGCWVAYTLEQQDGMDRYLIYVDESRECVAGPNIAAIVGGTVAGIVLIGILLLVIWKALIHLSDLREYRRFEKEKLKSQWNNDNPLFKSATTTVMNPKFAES

Consider `CN(Cc1cccc(-c2ccc(Br)cc2)c1)[C@H]1Cc2c(O)n(-c3cc(Cl)cc(Cl)c3)c(=O)n2C1` [(6S,7aS)-6-[(4''-Bromo-biphenyl-3-ylmethyl)-methyl-amino]-2-(3,5-dichloro-phenyl)-tetrahydro-pyrrolo[1,2-c]imidazole-1,3-dione], for which the IC50 was 175 nM. This lies in the sub-micromolar range.
Turning to `N#Cc1ccc(-c2cccc(CN[C@H]3Cc4c(O)n(-c5cc(Cl)cc(Cl)c5)c(=O)n4C3)c2)cc1` [3''-{[(6S,7aS)-2-(3,5-Dichloro-phenyl)-1,3-dioxo-hexahydro-pyrrolo[1,2-c]imidazol-6-ylamino]-methyl}-biphenyl-4-carbonitrile], it took 175 nM to reach half-maximal inhibition (IC50).

For the origin of these results see BindingDB's records for doi:10.1016/j.bmcl.2004.12.007 (Cerep, 2005).
